Our source for the IC50 values is patent publication US8987311B2, “Triazolyl-substituted pyridyl compounds useful as kinase inhibitors” (Bristol-Myers Squibb Company, priority 2012, dated 2015).

The assay concerns the target T1, IRAK4 (Homo sapiens, UniProt Q9NWZ3).
T1 sequence (Q9NWZ3 1-460): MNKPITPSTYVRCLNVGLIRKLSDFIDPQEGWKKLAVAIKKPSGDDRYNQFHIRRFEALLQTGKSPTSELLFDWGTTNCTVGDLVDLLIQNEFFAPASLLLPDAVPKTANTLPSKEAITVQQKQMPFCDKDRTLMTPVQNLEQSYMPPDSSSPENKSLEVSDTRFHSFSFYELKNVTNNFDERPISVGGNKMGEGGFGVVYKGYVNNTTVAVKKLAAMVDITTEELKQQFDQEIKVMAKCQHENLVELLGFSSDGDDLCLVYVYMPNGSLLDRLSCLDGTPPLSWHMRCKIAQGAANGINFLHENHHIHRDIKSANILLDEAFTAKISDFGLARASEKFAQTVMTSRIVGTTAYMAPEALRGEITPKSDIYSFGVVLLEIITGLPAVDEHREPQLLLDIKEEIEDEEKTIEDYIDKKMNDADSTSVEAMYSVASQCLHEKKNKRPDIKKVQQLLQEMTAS
Briefly: IRAK4 Inhibition Assay. Type of assay: biochemical. The conditions noted are these: ATP 500 μM; FL-IPTSPITTTYFFFKKK peptide 1.5 μM; IRAK4 0.6 nM; 60 min room temperature; Caliper LabChip 3000. The procedure:
The assays were performed in U-bottom 384-well plates. The final assay volume was 30 μL prepared from 15 μL additions of enzyme and substrates (fluoresceinated peptide and ATP) and test compounds in assay buffer (20 mM HEPES pH 7.2, 10 mM MgCl2, 0.015% Brij35 and 4 mM DTT). The reaction was initiated by the combination of IRAK4 with substrates and test compounds. The reaction was incubated at room temperature for 60 min. and terminated by adding 45 μL of 35 mM EDTA to each sample. The reaction mixture was analyzed on the Caliper LabChip 3000 (Caliper, Hopkinton, Mass.) by electrophoretic separation of the fluorescent substrate and phosphorylated product. Inhibition data were calculated by comparison to no enzyme control reactions for 100% inhibition and vehicle-only reactions for 0% inhibition. The final concentrations of reagents in the assays are ATP, 500 μM; FL-IPTSPITTTYFFFKKK peptide 1.5 μM; IRAK4, 0.6 nM; and DMSO, 1.6%.
On to `CC(C)Nc1cc(Nc2ccc3ncsc3c2)ncc1-c1nnc(C(=O)N2CCC(O)C2)s1` (single isomer, unassigned) [Example 6, (5-(6-(Benzo[d]thiazol-6-ylamino)-4-(isopropylamino)pyridin-3-yl)-1,3,4-thiadiazol-2-yl)(3-hydroxypyrrolidin-1-yl)methanone], for which the IC50 was found to be 0.0028 µM. Next, `CC(C)Nc1cc(Nc2ccc3ncsc3c2)ncc1-c1nnc(C(=O)N2CCC(O)C2)s1` (single isomer, unassigned) [Example 7, (5-(6-(Benzo[d]thiazol-6-ylamino)-4-(isopropylamino)pyridin-3-yl)-1,3,4-thiadiazol-2-yl)(3-hydroxypyrrolidin-1-yl)methanone]: 0.0032 µM.

Turning to `CC(C)Nc1cc(Nc2ccc3ncsc3c2)ncc1-c1nnc[nH]1` [Example 1, N2-(benzo[d]thiazol-6-yl)-N4-isopropyl-5-(4H-1,2,4-triazol-3-yl)pyridine-2,4-diamine], the IC50 was found to be 0.0253 µM. For `CC(C)Nc1cc(Nc2ccc3nsnc3c2)ncc1-c1nnc(C(=O)N2CC[C@@H](O)C2)s1` [Example 3, (R)-(5-(6-(Benzo[c][1,2,5]thiadiazol-5-ylamino)-4-(isopropylamino)pyridin-3-yl)-1,3,4-thiadiazol-2-yl)-(3-hydroxypyrrolidin-1-yl)methanone], the IC50 stood at 0.0025 µM. On to `CC(=O)NC1CCN(C(=O)c2nnc(-c3cnc(Nc4ccc5ncsc5c4)cc3NC(C)C)s2)C1` (centres unmarked) [Example 8, N-(1-(5-(6-(benzo[d]thiazol-6-ylamino)-4-(isopropylamino)pyridin-3-yl)-1,3,4-thiadiazole-2-carbonyl)pyrrolidin-3-yl)acetamide], for which the IC50 came to 0.0033 µM.

As to `CNC(=O)c1ccc(Nc2cc(Nc3ccc4ncsc4c3)ncc2-c2nnc(C(=O)N3CC[C@@H](O)C3)s2)cc1` [Example 19, (R)-4-((2-(benzo[d]thiazol-6-ylamino)-5-(5-(3-hydroxypyrrolidine-1-carbonyl)-1,3,4-thiadiazol-2-yl)pyridin-4-yl)amino)-N-methylbenzamide], the half-inhibitory concentration (IC50) amounted to 0.0032 µM. For `CCOC(=O)c1nc(-c2cnc(Nc3ccc4ncsc4c3)cc2NC(C)C)sc1C` [Example 23, Ethyl 2-(6-(benzo[d]thiazol-6-ylamino)-4-(isopropylamino)pyridin-3-yl)-5-methylthiazole-4-carboxylate], the IC50 is 0.961 µM. Next, `Cc1sc(-c2cnc(Nc3ccc4ncsc4c3)cc2NC(C)C)nc1C(=O)NCCCN1CCCCC1` [Example 25, 2-(6-(benzo[d]thiazol-6-ylamino)-4-(isopropylamino)pyridin-3-yl)-5-methyl-N-(3-(piperidin-1-yl)propyl)thiazole-4-carboxamide]: 0.0027 µM.

On to `CC(C)Nc1cc(Nc2ccc3ncsc3c2)ncc1-c1nc(C(=O)N2CCN(c3ccc(F)cc3F)CC2)cs1` [Example 31, (2-(6-(Benzo[d]thiazol-6-ylamino)-4-(isopropylamino)pyridin-3-yl)thiazol-4-yl)(4-(2,4-difluorophenyl)piperazin-1-yl)methanone], for which the IC50 is 0.764 µM. The figure for `CC(C)Nc1cc(Nc2ccc3ncsc3c2)ncc1-c1nc(C(=O)N2CCC3(CC2)C(=O)NCN3c2ccccc2)cs1` [Example 48, 8-(2-(6-(Benzo[d]thiazol-6-ylamino)-4-(isopropylamino)pyridin-3-yl)thiazole-4-carbonyl)-1-phenyl-1,3,8-triazaspiro[4.5]decan-4-one] is 0.576 µM; for `CC(C)Nc1cc(Nc2ccc3ncsc3c2)ncc1-c1nc(C(=O)NCC2CCCCC2)cs1` [Example 56, 2-(6-(Benzo[d]thiazol-6-ylamino)-4-(isopropylamino)pyridin-3-yl)-N-(cyclohexylmethyl)thiazole-4-carboxamide] it is 0.795 µM.

With `CC(C)Nc1cc(Nc2ccc3ncsc3c2)ncc1-c1nc(C(=O)NCC2CCCO2)cs1` (centres unmarked) [Example 59, 2-(6-(Benzo[d]thiazol-6-ylamino)-4-(isopropylamino)pyridin-3-yl)-N-((tetrahydrofuran-2-yl)methyl)thiazole-4-carboxamide], the IC50 was 0.024 µM. For `CC(C)Nc1cc(Nc2ccc3ncsc3c2)ncc1-c1nc(C(=O)NC[C@H](O)c2ccccc2)cs1` [Example 81, (R)-2-(6-(Benzo[d]thiazol-6-ylamino)-4-(isopropylamino)pyridin-3-yl)-N-(2-hydroxy-2-phenylethyl)thiazole-4-carboxamide], the half-maximal inhibitory concentration (IC50) amounted to 0.026 µM. Next, `CC(C)Nc1cc(Nc2ccc3ncsc3c2)ncc1-c1nc(C(=O)NCCCN2CCCC2)cs1` [Example 82, 2-(6-(Benzo[d]thiazol-6-ylamino)-4-(isopropylamino)pyridin-3-yl)-N-(3-(pyrrolidin-1-yl)propyl)thiazole-4-carboxamide]: 0.0031 µM; `Cc1oc(-c2cnc(Nc3ccc4ncsc4c3)cc2NC(C)C)nc1NC(=O)OC(C)(C)C` [Example 106, tert-butyl 2-(6-(benzo[d]thiazol-6-ylamino)-4-(isopropylamino)pyridin-3-yl)-5-methyloxazol-4-ylcarbamate]: 0.875 µM. The figure for `CC(C)Nc1cc(Nc2ccc3ncsc3c2)ncc1-c1nc(C(N)=O)co1` [Example 108, 2-(6-(Benzo[d]thiazol-6-ylamino)-4-(isopropylamino)pyridin-3-yl)oxazole-4-carboxamide] is 0.0027 µM; for `CC(C)Nc1cc(Nc2ccc(C#N)cc2)ncc1-c1nnc(NC[C@@H](F)CO)o1` [Example 115, (R)-4-((5-(5-((2-Fluoro-3-hydroxypropyl)amino)-1,3,4-oxadiazol-2-yl)-4-(isopropylamino)pyridin-2-yl)amino)benzonitrile] it is 0.0229 µM; for `CC(C)Nc1cc(Nc2ccc3ncsc3c2)ncc1-c1nnc(NC2CNC2)o1` [Example 128, 5-(5-(Azetidin-3-ylamino)-1,3,4-oxadiazol-2-yl)-N2-(benzo[d]thiazol-6-yl)-N4-isopropylpyridine-2,4-diamine] it is 0.0264 µM. Next, `CC(C)Nc1cc(Nc2ccc3ncsc3c2)ncc1-c1nnc(N2CCN(CCO)CC2)o1` [Example 129, 2-(4-(5-(6-(Benzo[d]thiazol-6-ylamino)-4-(isopropylamino)pyridin-3-yl)-1,3,4-oxadiazol-2-yl)piperazin-1-yl)ethanol]: 0.0254 µM; `CC(C)Nc1cc(Nc2ccc3ncsc3c2)ncc1-c1nnc(N2CCN(CCN3CCOCC3)CC2)o1` [Example 130, N2-(benzo[d]thiazol-6-yl)-N4-isopropyl-5-(5-(4-(2-morpholinoethyl)piperazin-1-yl)-1,3,4-oxadiazol-2-yl)pyridine-2,4-diamine]: 0.0221 µM.

Take `CC(C)Nc1cc(Nc2ccc3ncsc3c2)ncc1-c1nnc(-c2ccc(F)c(S(=O)(=O)NC(C)(C)C)c2)o1` [Example 143, 5-(5-(6-(Benzo[d]thiazol-6-ylamino)-4-(isopropylamino)pyridin-3-yl)-1,3,4-oxadiazol-2-yl)-N-(tert-butyl)-2-fluorobenzenesulfonamide]: the IC50 was 0.676 µM. The figure for `CC(C)Nc1cc(Nc2ccc3ncsc3c2)ncc1-c1nnc(-c2cccc(C(N)=O)c2)o1` [Example 148, 3-(5-(6-(Benzo[d]thiazol-6-ylamino)-4-(isopropylamino)pyridin-3-yl)-1,3,4-oxadiazol-2-yl)benzamide] is 0.564 µM.

For the compound `NC(=O)c1nnc(-c2cnc(Nc3ccc4ncsc4c3)cc2N[C@H](CO)Cc2ccccc2)o1` [Example 152, (S)-5-(6-(Benzo[d]thiazol-6-ylamino)-4-((1-hydroxy-3-phenylpropan-2-yl)amino)pyridin-3-yl)-1,3,4-oxadiazole-2-carboxamide], the IC50 amounted to 0.0245 µM.

As to `CC(C)Nc1cc(Nc2ccc3ncsc3c2)ncc1-c1nnc(C(=O)N2CCC(N)CC2)o1` [Example 161, (4-Aminopiperidin-1-yl)(5-(6-(benzo[d]thiazol-6-ylamino)-4-(isopropylamino)pyridin-3-yl)-1,3,4-oxadiazol-2-yl)methanone], the IC50 came out at 0.023 µM.

With `COc1cccc(-c2cnc(Nc3ccc4ncsc4c3)cc2NC(C)C)n1` [Example 176, N6′-(Benzo[d]thiazol-6-yl)-N4′-isopropyl-6-methoxy-[2,3′-bipyridine]-4′,6′-diamine], the 50% inhibitory concentration (IC50) is 0.616 µM. Next, `CC(C)Nc1cc(Nc2ccc3ncsc3c2)ncc1-c1ccc2cn[nH]c2c1` [Example 177, N2-(Benzo[d]thiazol-6-yl)-5-(1H-indazol-6-yl)-N4-isopropylpyridine-2,4-diamine]: 0.813 µM.

In general, IC50 refers to the point on the concentration scale where inhibition reaches its midpoint.
